The values that follow come from PMC6973011, “Stafia‐1: a STAT5a‐Selective Inhibitor Developed via Docking‐Based Screening of in Silico O‐Phosphorylated Fragments” (Chemistry (Weinheim an Der Bergstrasse, Germany), 2019).

The target of test [1] is T1, STAT5a (Homo sapiens, UniProt P42229).
T1 construct: made in house
T1 sequence (P42229 1-794): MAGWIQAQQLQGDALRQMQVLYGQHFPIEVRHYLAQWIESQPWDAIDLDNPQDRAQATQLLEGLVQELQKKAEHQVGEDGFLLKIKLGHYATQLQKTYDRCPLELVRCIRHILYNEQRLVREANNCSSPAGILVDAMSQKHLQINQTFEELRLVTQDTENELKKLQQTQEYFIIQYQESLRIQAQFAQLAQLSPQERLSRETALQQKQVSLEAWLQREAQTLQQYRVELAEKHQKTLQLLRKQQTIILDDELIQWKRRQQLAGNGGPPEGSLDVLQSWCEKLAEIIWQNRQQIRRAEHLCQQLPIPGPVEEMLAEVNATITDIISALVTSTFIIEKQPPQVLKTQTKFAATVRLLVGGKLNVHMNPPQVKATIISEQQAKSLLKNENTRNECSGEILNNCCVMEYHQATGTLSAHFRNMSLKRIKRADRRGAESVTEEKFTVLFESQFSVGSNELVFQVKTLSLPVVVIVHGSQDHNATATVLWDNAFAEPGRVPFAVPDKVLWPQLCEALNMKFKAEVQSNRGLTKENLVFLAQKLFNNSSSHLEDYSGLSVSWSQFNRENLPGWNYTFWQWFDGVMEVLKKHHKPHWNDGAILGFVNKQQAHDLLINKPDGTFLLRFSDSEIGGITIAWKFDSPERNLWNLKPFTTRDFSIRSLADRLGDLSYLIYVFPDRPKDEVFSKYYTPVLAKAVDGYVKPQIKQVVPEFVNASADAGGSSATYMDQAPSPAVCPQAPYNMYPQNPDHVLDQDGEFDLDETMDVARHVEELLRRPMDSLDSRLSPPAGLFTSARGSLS
The test can be described thus: Fluorescence polarization competitive binding assay, STAT5a. In general terms: Fluorescence polarisation rises when a labelled molecule tumbles more slowly, as on binding a larger partner.

For test [2], the target named is T2, STAT5a Trp566Arg/Lys644Met (Homo sapiens, UniProt P42229, K644M/W566R).
T2 construct: made in house
T2 sequence (P42229 1-794 W566R/K644M): T1 sequence (P42229 1-794) with W566R, K644M
Description: Fluorescence polarization assay, double mutant STAT5a Trp566Arg/Lys644Met. It is filed as binding. The note with it: FP assay.

In test [3] the target is T3, STAT5b Arg566Trp/Gln636Pro/Met639Asn/Phe640Leu/Met644Lys/Asn664Ser/Tyr679Phe (STAT5b‐7M) (Homo sapiens, UniProt P51692, F640L/M639N/M644K/N664S/Q636P/R566W/Y679F).
T3 construct: made in house
T3 sequence (P51692 1-787 R566W/Q636P/M639N/F640L/M644K/N664S/Y679F): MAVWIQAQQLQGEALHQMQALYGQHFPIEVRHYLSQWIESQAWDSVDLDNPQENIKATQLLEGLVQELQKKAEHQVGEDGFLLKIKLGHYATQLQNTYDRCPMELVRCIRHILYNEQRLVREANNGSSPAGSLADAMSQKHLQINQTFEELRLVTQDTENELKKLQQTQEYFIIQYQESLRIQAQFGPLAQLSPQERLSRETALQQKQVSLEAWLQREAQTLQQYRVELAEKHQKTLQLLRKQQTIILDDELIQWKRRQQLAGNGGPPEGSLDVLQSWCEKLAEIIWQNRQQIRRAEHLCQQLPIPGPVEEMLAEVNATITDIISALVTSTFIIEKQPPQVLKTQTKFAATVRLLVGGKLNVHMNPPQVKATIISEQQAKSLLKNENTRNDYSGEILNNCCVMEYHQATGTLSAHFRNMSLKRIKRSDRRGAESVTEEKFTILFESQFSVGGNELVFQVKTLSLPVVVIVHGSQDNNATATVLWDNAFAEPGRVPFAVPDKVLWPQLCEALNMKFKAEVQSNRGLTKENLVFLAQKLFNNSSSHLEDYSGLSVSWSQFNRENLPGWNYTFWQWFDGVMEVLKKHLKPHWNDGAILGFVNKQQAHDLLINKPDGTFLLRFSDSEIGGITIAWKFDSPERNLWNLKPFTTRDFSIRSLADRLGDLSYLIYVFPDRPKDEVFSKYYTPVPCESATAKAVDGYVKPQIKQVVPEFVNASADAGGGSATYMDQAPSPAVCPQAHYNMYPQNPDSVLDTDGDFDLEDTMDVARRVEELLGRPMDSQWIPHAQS
Description: Fluorescence polarization assay, mutant STAT5b-7M. It is filed as binding. The note with it: FP assay.

Positions count from the first letter of the chain named.

A word on the IC50: it is the midpoint of a concentration-inhibition curve. What is called Ki is the equilibrium dissociation constant of an inhibitor or competing ligand from its target. Read a high Ki as a looser hold on the target. The inhibition is the share of the control response that was lost under treatment. Higher therefore signals strong suppression. In test [1], `COc1cc(-c2cc(OP(=O)(O)O)cc(-c3cc(OC)c(OC)c(OC)c3)c2)cc(OC)c1OC` [Compound 20] had a concentration for half-maximal inhibition (IC50) of 22.2 ± 3.6 µM and a Ki of 10.9 ± 1.8 µM. Moreover, the “selectivity for STAT5a over STAT5b” value in test [1] (FP assays, STAT5a vs STAT5b) was “at least 9 fold”. For the same compound, in test [2], testing at 200 µM gave an inhibition of 44 ± 4%. In test [3], this compound yielded a half-inhibitory concentration (IC50) of 42.6 ± 8.8 µM and an inhibition constant (Ki) of 21.1 ± 4.4 µM.
